“And” between values parts separate entries of the source, which are not always exact repeats. Equal entries are not always repeated. Where two headings read alike, the source gives them in different places. Where a SMILES comes first, the peptide text is derived from it. Bridges are numbered along the chain shown (N, C = ends). The star is where a group is joined. Propanoyl(2-F) = CC(F)C(=O)*
Legend:
integrin αIIbβ3 = molecular target: T1, integrin αIIbβ3 (Homo sapiens, UniProt P05106+P08514); experiment: Isolated receptor binding assay, immobilised integrin, [125I]echistatin displacement
T1 construct: purchased Chemicon, Millipore
T1 sequence (P08514 32-887 limits assumed): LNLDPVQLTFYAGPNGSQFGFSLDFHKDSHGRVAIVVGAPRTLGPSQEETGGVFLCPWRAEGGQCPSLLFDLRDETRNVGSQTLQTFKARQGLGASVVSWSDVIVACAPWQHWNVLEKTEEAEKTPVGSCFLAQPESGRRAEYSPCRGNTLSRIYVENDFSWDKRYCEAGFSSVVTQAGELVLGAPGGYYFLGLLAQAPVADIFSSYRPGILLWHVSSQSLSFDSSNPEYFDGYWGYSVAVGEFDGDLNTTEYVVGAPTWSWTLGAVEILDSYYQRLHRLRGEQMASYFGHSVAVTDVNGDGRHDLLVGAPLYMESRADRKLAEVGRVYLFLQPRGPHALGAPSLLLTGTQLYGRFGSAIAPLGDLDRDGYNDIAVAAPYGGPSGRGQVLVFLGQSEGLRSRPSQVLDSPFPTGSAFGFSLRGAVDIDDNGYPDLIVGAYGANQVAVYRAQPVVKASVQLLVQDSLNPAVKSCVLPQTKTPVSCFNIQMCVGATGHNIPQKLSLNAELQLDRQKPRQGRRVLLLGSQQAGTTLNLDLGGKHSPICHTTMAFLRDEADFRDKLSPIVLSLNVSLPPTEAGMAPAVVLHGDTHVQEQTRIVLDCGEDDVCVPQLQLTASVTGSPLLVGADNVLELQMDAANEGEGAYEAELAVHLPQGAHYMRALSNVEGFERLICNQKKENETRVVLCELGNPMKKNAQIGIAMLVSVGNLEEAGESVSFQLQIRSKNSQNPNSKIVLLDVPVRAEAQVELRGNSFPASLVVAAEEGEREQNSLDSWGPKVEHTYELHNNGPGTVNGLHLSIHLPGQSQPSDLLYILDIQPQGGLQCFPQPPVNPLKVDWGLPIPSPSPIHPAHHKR
T1 sequence (P08514 891-1039 partner limits assumed): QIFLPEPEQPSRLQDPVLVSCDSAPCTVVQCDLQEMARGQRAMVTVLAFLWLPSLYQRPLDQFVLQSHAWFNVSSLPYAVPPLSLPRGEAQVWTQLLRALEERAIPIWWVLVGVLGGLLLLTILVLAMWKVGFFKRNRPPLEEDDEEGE
T1 sequence (P05106 27-788): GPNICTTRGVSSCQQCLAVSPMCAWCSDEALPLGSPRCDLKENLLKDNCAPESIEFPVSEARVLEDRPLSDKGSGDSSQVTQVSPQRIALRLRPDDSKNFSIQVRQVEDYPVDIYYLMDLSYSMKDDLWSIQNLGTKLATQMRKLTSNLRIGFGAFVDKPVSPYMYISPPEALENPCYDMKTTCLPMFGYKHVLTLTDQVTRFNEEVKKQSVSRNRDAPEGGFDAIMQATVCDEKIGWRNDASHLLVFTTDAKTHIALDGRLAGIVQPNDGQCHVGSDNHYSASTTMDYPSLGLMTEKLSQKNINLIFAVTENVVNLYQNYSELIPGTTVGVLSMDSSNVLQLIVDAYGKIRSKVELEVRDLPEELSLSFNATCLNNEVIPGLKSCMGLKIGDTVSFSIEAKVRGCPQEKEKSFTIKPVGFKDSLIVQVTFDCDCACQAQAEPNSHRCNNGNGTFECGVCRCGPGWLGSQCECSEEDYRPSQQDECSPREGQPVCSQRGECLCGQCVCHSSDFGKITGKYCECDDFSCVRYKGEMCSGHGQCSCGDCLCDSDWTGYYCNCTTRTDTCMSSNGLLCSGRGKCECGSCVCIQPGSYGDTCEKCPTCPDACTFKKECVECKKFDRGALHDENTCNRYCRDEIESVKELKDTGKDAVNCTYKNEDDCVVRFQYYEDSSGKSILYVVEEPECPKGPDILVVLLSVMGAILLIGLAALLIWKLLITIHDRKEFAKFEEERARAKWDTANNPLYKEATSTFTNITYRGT
Protocol: (§1) The receptor binding assay was performed following the procedure described previously. In brief, commercially available purifiedα v β 3,α 5 β 1, orα IIb β 3 (Triton X-100 formulation, Chemicon, Millipore) was diluted in coating buffer (25 mM Tris-HCl, 150 mM NaCl, 1 mM CaCl2, 0.5 mM MgCl2, 1 mM MnCl2, pH 7.4), and an aliquot of 100 μL/well, corresponding to 25 ng/wellα v β 3, 100 ng/wellα 5 β 1, or 50 ng/wellα IIb β 3, was added to a 96-well microtiter plate (Maxisorb, Nunc, Wiesbaden, Germany) and incubated at 4°C overnight. The cells were incubated for two hours with blocking buffer (200 μL, coating buffer containing 1% (w/v) bovine serum albumin (BSA)) at room temperature. After washing twice with binding buffer (coating buffer with 0.1% (w/v) BSA) the cells were incubated in the presence of the competing ligand (90 μL, 0.5 pM to 500 nM echistatin; 0.05 nM to 50 μM peptide in binding buffer) with [^125I]echistatin (0.37 kBq/well, 10 μL, 0.05 nM; PerkinElmer, Germany) for 3 h. Afterwards, the cells were washed three times with binding buffer, and bound [^125I]echistatin was solubilised with warm NaOH (2 M). The radioactivity in the resulting samples was measured by a γ-counter. Each data point represents the mean from three cells. All measurements were repeated at least once. K i values were calculated using the software program GraphPad PRISM (GraphPad Software Inc., CA, USA).
(§2) The binding affinities were determined using isolated receptor binding assays where the different integrins (α 5 β 1,α v β 3, andα IIb β 3) were immobilised and [^125I]echistatin was replaced by increasing amounts of the different peptides tested. […] Introduction of the (RS)-2-fluoropropionic acid at the N-terminus of the peptide reduced the binding affinity by a factor of approx. 10.

integrin α5β1 = molecular target: T2, integrin α5β1 (Homo sapiens, UniProt P05556+P08648); experiment: as above; conditions: for Ki: immobilized integrin; for Suppression of the binding of [125I]echistatin to immobilised integrin α5β1: result in words
T2 construct: purchased Chemicon, Millipore
T2 sequence (P08648 42-894 limits assumed): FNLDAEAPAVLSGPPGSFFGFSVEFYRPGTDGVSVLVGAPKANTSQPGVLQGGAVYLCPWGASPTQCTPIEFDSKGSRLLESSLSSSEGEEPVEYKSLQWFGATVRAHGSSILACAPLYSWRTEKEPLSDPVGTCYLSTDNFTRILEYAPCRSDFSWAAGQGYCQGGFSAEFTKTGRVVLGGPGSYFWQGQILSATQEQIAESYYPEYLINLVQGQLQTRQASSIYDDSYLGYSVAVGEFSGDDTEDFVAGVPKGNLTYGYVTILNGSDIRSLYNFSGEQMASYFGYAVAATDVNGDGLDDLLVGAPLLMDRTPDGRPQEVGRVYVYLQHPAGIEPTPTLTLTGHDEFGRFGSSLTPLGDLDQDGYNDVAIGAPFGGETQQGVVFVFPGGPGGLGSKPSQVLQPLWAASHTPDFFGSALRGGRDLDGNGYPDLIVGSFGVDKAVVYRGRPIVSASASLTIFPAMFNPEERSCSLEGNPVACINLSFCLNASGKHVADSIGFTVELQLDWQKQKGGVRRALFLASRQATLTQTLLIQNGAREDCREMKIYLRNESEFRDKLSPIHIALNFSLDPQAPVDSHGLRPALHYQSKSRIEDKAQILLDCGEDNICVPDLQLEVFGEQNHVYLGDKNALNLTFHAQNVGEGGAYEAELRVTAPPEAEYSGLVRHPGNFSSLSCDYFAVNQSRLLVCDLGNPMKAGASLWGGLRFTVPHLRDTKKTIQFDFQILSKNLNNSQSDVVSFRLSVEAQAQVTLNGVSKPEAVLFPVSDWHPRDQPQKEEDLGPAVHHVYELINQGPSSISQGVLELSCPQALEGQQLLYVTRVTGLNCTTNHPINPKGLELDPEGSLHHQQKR
T2 sequence (P08648 895-1049 partner limits assumed): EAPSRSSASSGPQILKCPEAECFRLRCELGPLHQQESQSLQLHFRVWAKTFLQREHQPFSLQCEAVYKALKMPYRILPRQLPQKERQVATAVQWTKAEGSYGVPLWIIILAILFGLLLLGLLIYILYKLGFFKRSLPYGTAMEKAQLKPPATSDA
T2 sequence (P05556 21-798): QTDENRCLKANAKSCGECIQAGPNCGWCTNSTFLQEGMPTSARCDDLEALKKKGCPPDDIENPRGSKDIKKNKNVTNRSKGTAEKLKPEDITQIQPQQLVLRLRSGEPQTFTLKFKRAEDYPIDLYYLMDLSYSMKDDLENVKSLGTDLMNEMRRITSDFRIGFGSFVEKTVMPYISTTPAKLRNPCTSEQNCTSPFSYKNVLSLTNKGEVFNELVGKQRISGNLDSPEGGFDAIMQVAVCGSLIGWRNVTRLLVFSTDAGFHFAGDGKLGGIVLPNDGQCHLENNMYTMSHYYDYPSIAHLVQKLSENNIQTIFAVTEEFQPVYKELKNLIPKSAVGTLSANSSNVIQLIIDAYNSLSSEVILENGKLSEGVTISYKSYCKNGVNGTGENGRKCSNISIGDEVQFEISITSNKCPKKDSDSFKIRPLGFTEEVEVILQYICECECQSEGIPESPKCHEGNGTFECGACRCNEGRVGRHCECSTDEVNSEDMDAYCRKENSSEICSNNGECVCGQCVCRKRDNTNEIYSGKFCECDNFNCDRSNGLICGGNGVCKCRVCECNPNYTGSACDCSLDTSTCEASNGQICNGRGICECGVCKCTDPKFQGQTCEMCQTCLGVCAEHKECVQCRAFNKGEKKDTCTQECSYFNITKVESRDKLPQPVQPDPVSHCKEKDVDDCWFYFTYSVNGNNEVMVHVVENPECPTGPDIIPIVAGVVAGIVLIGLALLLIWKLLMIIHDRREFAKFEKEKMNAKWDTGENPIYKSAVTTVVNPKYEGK
Protocol: as §1, §2

integrin αvβ3 = molecular target: T3, integrin αvβ3 (Homo sapiens, UniProt P05106+P06756); experiment: as above
T3 construct: purchased Chemicon, Millipore
T3 sequence (P06756 31-889 limits assumed): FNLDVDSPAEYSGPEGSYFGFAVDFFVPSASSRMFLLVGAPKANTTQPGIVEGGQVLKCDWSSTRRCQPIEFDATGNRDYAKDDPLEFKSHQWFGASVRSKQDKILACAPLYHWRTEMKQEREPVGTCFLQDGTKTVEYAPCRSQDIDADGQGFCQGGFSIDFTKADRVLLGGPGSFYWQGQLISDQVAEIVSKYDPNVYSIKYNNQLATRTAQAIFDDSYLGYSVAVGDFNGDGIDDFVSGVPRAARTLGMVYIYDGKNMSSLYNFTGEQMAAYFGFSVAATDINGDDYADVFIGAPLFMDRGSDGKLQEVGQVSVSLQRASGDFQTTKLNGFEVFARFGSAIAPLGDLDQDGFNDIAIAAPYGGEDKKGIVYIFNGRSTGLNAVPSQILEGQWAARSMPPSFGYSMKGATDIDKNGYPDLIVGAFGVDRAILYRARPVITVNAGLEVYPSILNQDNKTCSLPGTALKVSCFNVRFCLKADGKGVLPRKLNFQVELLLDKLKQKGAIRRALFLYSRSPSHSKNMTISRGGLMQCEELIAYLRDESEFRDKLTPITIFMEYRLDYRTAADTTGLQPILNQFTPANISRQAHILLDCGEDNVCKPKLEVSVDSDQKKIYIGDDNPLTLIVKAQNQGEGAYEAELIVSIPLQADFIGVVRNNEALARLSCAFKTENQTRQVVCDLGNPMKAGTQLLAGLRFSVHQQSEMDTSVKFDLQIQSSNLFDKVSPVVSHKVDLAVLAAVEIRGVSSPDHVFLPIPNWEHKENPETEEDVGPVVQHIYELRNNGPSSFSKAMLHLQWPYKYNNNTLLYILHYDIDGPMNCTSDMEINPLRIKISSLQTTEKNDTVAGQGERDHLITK
T3 sequence (P06756 891-1048 partner limits assumed): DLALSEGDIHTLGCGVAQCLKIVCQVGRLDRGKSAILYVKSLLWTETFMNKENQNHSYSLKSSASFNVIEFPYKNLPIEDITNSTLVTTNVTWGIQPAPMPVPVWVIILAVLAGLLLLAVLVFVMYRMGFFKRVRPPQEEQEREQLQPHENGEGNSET
T3 sequence (P05106 27-788): as the sequence (P05106 27-788) above
Protocol: as §1, §2

α5β1 = test system: α5β1; parameters: method as in PMID 7507494; conditions: read-out: IC50, inhibition of binding of fibronectin to α5β1; cited from earlier work
[1] = assay type: in vitro ADME, human
Protocol: The protein binding studies were carried out by incubating [^18F]FProp-C^*RRETAWAC^*-OH (1 MBq/mL) in fresh human serum at 37°C for different time points (30, 60, and 120 min). After incubation, the solution was passed through a spin column (MicroSpin G-50 columns; GE Healthcare, Buckinghamshire, United Kingdom). Protein binding was determined by measuring the activity fixed on the column and the activity in the eluate in the gamma counter. As control [^18F]FProp-C^*RRETAWAC^*-OH was incubated at the same concentration for 60 min in PBS instead of serum.

[2] = test system: DU145 human prostate carcinoma cells (αvβ3-negative and α5β1-positive); experiment: Cell uptake study with/without blocking by H-C*RRETAWAC*-OH; assay type: cell-based; conditions: 37°C, with or without excess H-C*RRETAWAC*-OH
Protocol: (§3) M21 (α v β 3-positive andα 5 β 1-negative), […] (α v β 3-negative andα 5 β 1-positive), and M21L (both receptors negative) cells were maintained in Gibco RPMI 1640 (Life Technologies, Carlsbad, CA) containing 1% glutamine, 10% (v/v) fetal calf serum (FCS), and 1% penicillin/streptomycin/glutamine and grown in tissue culture flasks (Cellstar; Greiner Bio-One, Kremsmuenster, Austria) at 37°C in a humidified atmosphere of 5% CO2 (v/v). For cell uptake studies, cells were trypsinised, washed twice with binding buffer (10 mM HEPES (pH 7.4), 150 mM NaCl, 2 mM MnCl2, 0.1% BSA), and aliquots of 0.9 mL containing 2 × 10^6 cells were transferred to Eppendorf tubes. After addition of 50 μL radiotracer (>100,000 cpm), cells were incubated at 37°C for 120 min in triplicate with either 50 μL PBS with 0.5% BSA (unblocked) or 50 μL of 50 μM H-C^*RRETAWAC^*-OH in PBS/0.5% BSA (blocked), respectively.
(§4) Incubation was stopped by centrifugation (2 min, 1000 rpm); medium was removed and cells were washed twice with 1 mL ice-cold binding buffer. […] Cells were lysed by treatment in 1 N NaOH and […] radioactivity was collected (internalised radioligand fraction). Protein content in the NaOH fraction was determined using spectrophotometric determination with Bradford reagent (Sigma Aldrich, Vienna, Austria). Internalised radioactivity was expressed as percentage of total activity per mg protein.

[3] = test system: M21-L human melanoma cells (both receptors negative); experiment: as above; assay type: cell-based; conditions: 37°C, with or without excess H-C*RRETAWAC*-OH
Protocol: as §3, §4

[4] = assay type: in vitro ADME, human; remark: listed apart in the source
Protocol: For stability studies, [^18F]FProp-C^*RRETAWAC^*-OH (approx. 2 MBq/mL) was incubated in human serum for 30, 60, and 120 min at 37°C. At each time point, aliquots of 100 μL were taken and proteins were precipitated using 150 μL acetonitrile. The suspension was treated for 5 min with ultrasound and subsequently centrifuged. The supernatant was diluted with water and analysed by HPLC.

[5] = Binding affinity (Ki) α5β1, average and standard deviation of the mean, or bound with n = 2, 125I-echistatin
[6] = Binding affinity (Ki) α5β1, single determinations, 125I-echistatin as radioligand
[7] = average and standard deviation of the mean, or bound with n = 2, 125I-echistatin, read-out: Binding affinity (Ki) α5β1
[8] = single determinations, 125I-echistatin as radioligand, read-out: Binding affinity (Ki) α5β1

| Molecule | Ki (integrin α5β1; [5]) | Ki (integrin α5β1; [6]) | Ki (integrin α5β1; [7]) | Ki (integrin α5β1; [8]) | Suppression of the binding of [125I]echistatin to immobilised integrin α5β1 (integrin α5β1) | other results |
| --- | --- | --- | --- | --- | --- | --- |
| CC(F)C(=O)N[C@H]1CSSC[C@@H](C(=O)O)NC(=O)[C@H](C)NC(=O)[C@H](Cc2c[nH]c3ccccc23)NC(=O)[C@H](C)NC(=O)[C@H]([C@@H](C)O)NC(=O)[C@H](CCC(=O)O)NC(=O)[C@H](CCCNC(=N)N)NC(=O)[C@H](CCCNC(=N)N)NC1=O (some centres unmarked) [FProp-C∗RRETAWAC∗-OH (1)] ({Propanoyl(2-F)}-CRRETAWAC-OH; disulfide 1-9) | 44 ± 3 nM | 41 nM and 47 nM |  |  |  | Ki (integrin αIIbβ3): > 50000 nM; Ki (integrin αvβ3): > 50000 nM |
| CC(F)C(=O)N[C@H]1CSSC[C@@H](C(=O)O)NC(=O)[C@H](C)NC(=O)[C@H](Cc2c[nH]c3ccccc23)NC(=O)[C@H](C)NC(=O)[C@H]([C@@H](C)O)NC(=O)[C@H](CCC(=O)O)NC(=O)[C@H](CCCNC(=N)N)NC(=O)[C@H](CCCNC(=N)N)NC1=O (some centres unmarked) [FProp-C∗RRETAWAC∗-OH (2)] ({Propanoyl(2-F)}-CRRETAWAC-OH; disulfide 1-9) | 77 ± 50 nM | 127 nM and 26 nM |  |  |  | Ki (integrin αIIbβ3; read-out: Binding affinity (Ki) αIIbβ3, immobilized integrin, 125I-echistatin as radioligand): > 50000 nM; Ki (integrin αvβ3; read-out: Binding affinity (Ki) αvβ3, immobilized integrin, 125I-echistatin as radioligand): > 50000 nM |
| C[C@@H]1NC(=O)[C@H](Cc2c[nH]c3ccccc23)NC(=O)[C@H](C)NC(=O)[C@H]([C@@H](C)O)NC(=O)[C@H](CCC(=O)O)NC(=O)[C@H](C)NC(=O)[C@H](CCCNC(=N)N)NC(=O)[C@@H](N)CSSC[C@@H](C(=O)O)NC1=O [H-C∗RAETAWAC∗-OH] (H-CRAETAWAC-OH; disulfide 1-9) |  |  | 16 ± 1 nM | 17 nM and 15 nM |  |  |
| C[C@@H]1NC(=O)[C@H](Cc2c[nH]c3ccccc23)NC(=O)[C@H](C)NC(=O)[C@H]([C@@H](C)O)NC(=O)[C@H](CCC(=O)O)NC(=O)[C@H](CCCNC(=N)N)NC(=O)[C@H](CCCNC(=N)N)NC(=O)[C@@H](N)CSSC[C@@H](C(=O)O)NC1=O [H-C∗RRETAWAC∗-OH, H-Cys^*-Arg-Arg-Glu-Thr-Ala-Trp-Ala-Cys^*-OH] (H-CRRETAWAC-OH; disulfide 1-9) |  |  | 5.3 ± 4.1 nM | 10 nM and 3.9 nM and 2.1 nM | fully suppress | Ki (integrin αvβ3; immobilized integrin, 125I-echistatin as radioligand, read-out: Binding affinity (Ki) αvβ3): > 50000 nM; IC50 (α5β1): 8 nM |
| FProp-C^*RRETAWAC^*-OH: non-radioactive reference compound, N-terminal (RS)-2-fluoropropionyl conjugate of the lead peptide ({(RS)‑2‑fluoropropionyl}-CRRETAWAC-OH; disulfide N-9) |  |  |  |  | fully suppress |  |
| [^18F]FProp-Cys^*-Arg-Arg-Glu-Thr-Ala-Trp-Ala-Cys^*-OH ({(18F)fluoropropionyl}-CRRETAWAC-OH; disulfide N-9) [[^18F]FProp-C^*RRETAWAC^*-OH, 18F-labelled radiopeptide tracer for integrin α5β1] |  |  |  |  |  | Protein bound activity in human serum [1]: below 6 % of the total incubated activity; Specific binding and internalisation (cell uptake) [2]: specific binding and internalisation; Specific uptake (cell uptake) [3]: no specific uptake; Serum stability (percentage printed in Figure 2) [4]: 97.1% |

From publication PMC4211326, “H-CRRETAWAC-OH, a Lead Structure for the Development of Radiotracer Targeting Integrin α 5 β 1?” (BioMed Research International, 2014)
